Laboratory results published in patent publication US12358901B2, “KV3 modulators” (priority 2018, dated 2025).

Assays:
[1] = target: human Kv3.1 channels (hKv3.1) (Homo sapiens, UniProt P48547); assay: cell-based; type: cell-based; settings: for Kv3.1 pEC50: HEK-hKv3.1 cells, -15 mV voltage step, normalised to 50 microM reference compound; for Kv3.1 max R %: maximum response relative to reference compound (50 microM)
Source text: The ability of the compounds of the invention to modulate the voltage-gated potassium channel subtypes Kv3.3/Kv3.2/Kv3.1 may be determined using the following assay. Analogous methods may be used to investigate the ability of the compounds of the invention to modulate other channel subtypes.
To assess compound effects on human Kv3.1 channels (hKv3.1):
Human embryonic kidney (HEK)-hKv3.1 cell line is generated by transfecting HEK-293 cells with an expression vector with human Kv3.1 (NM_004976.4). Cells are cultured with MEM supplemented with 10% Heat-Inactivated FBS, 2 mM L-glutamine, 1% Penicillin-Streptomycin, and 0.6 mg/ml of Geneticin (G418). HEK-hKv3.1b cells were amplified in T175 cm2 flask at 37° C. with 5% CO2, using MEM amplification medium, containing the G418 selection antibiotic (0.6 mg/ml). Cells were detached every 3-4 days, using DPBS to wash twice the flask, then TrypLE to dislodge the cells, and re-plated at a density of 2-4×10^6 cells/flask.
The day of the experiment, cells are removed from the incubator and the culture medium removed. Cells are washed with 5 ml of Dulbecco's PBS (DPBS) calcium and magnesium free and detached by the addition of 3 ml Versene (Invitrogen, Italy) followed by a brief incubation at 37° C. for 5 minutes. The flask is tapped to dislodge cells and 10 ml of DPBS containing calcium and magnesium is added to prepare a cell suspension. The cell suspension is then placed into a 15 ml centrifuge tube and centrifuged for 2 min at 1200 rpm. After centrifugation, the supernatant is removed and the cell pellet re-suspended in 4 ml of DPBS containing calcium and magnesium using a 5 ml pipette to break up the pellet. Cell suspension volume is then corrected to give a cell concentration for the assay of approximately 3 million cells per ml.
Experiments are conducted at r.t. using IonWorks Quattro™ planar array electrophysiology technology (Molecular Devices Corp.) with PatchPlate™ PPC. Stimulation protocols and data acquisition are carried out using a microcomputer (Dell Pentium 4). Planar electrode hole resistances (Rp) are determined by applying a 10 mV voltage step across each well. These measurements are performed before cell addition. After cell addition and seal formation, a seal test is performed by applying a voltage step from −80 mV to −70 mV for 160 ms. Following this, amphotericin-B solution is added to the intracellular face of the electrode to achieve intracellular access. Cells are held at −70 mV. Leak subtraction is conducted in all experiments by applying 50 ms hyperpolarizing (10 mV) prepulses to evoke leak currents followed by a 20 ms period at the holding potential before test pulses.
For hKv3.2 and hKv3.1, assays from the holding potential of −70 mV, a first test pulse at −15 mV was applied for 100 ms and after 100 ms at −70 mV a second pulse at +40 mV was applied for 50 ms. Cells were then maintained for 100 ms at −100 mV and another pulse from −70 mV to +40 mV (duration 50 ms) was applied to clamp later the voltage at −40 mV during 200 ms
The intracellular solution contains the following (in mM): K-gluconate 100, KCl 54, MgCl2 3.2, HEPES 5, adjusted to pH 7.3 with KOH. Amphotericin-B solution is prepared as 50 mg/ml stock solution in DMSO and diluted to a final working concentration of 0.1 mg/ml in intracellular solution. The external solution is Dulbecco's Phosphate Buffered Saline (DPBS) and contained the following (in mM): CaCl2 0.90, KCl 2.67, KH2PO4 1.47, MgCl·6H2O 0.493, NaCl 136.9, Na3PO4 8.06, with a pH of 7.4.
Compounds of use in the invention (or reference compounds such as N-cyclohexyl-N-[(7,8-dimethyl-2-oxo-1,2-dihydro-3-quinolinyl)methyl]-N-phenylurea) are dissolved in dimethylsulfoxide (DMSO) at a stock concentration of 10 mM. These solutions are further diluted with DMSO using a Biomek FX (Beckman Coulter) in a 384 compound plate. Each dilution (1 μL) is transferred to another compound plate and external solution containing 0.05% pluronic acid (66 μL) is added. […]

[2] = Determination of brain tissue binding (equilibrium dialysis); type: in vitro ADME; settings: Sprague Dawley, rat whole brain homogenate, 5 h at 37° C.
Protocol: Sprague Dawley rat whole blood, collected on the week of the experiment using K3-EDTA as an anti-coagulant, is diluted with isotonic phosphate buffer 1:1 (v/v). Sprague Dawley rat whole brain, stored frozen at −20° C., is thawed and homogenised in artificial cerebrospinal fluid (CSF) 1:2 (w/v).
An appropriate amount of test compound is dissolved in DMSO to give a 10 millimolar solution. Further dilutions, to obtain a 166.7 micromolar working solution are then prepared using 50% acetonitrile in MilliQ water. This working solution is used to spike the blood to obtain a final concentration of 0.5 micromolar in whole blood. Similarly, the working solution is used to spike brain samples to obtain a final concentration of 5 micromolar in whole brain. From these spiked blood and brain preparations, control samples (n=3), are immediately extracted and used to calculate the initial recovery of the test items.
150 microL of compound-free buffer (isotonic phosphate buffer for blood or artificial CSF buffer for brain) is dispensed in one half-well and 150 microL of spiked matrix (blood or brain) is loaded in the other half-well, with the two halves separated by a semi-permeable membrane. After an equilibration period of 5 h at 37° C., 50 microL of dialysed matrix (blood or brain) is added to 50 microL of corresponding compound-free buffer, and vice-versa for buffer, such that the volume of buffer to matrix (blood or brain) remains the same. Samples are then extracted by protein precipitation with 300 microL of acetonitrile containing rolipram (control for positive ionization mode) or diclofenac (control for negative ionization mode) as internal standards and centrifuged for 10 min at 3000 rpm. Supernatants are collected (100 microL), diluted with 27% AcN in MilliQ water (200 microL) and then injected into an HPLC-MS/MS or UPLC-MS/MS system to determine the concentration of test compound present.
Blood and brain tissue binding are then determined using the following formulas: Afu=Buffer/Blood or Afu=CSF/Brain
Where Afu=apparent fraction unbound; Buffer=analyte/internal standard ratio determined in the buffer compartment; Blood=analyte/internal standard ratio determined in the blood compartment; Brain=analyte/internal standard ratio determined in the brain compartment.
[formula] where: fucr=Fraction unbound corrected; D=matrix dilution factor (D=2 for blood and D=3 for brain).
Then: % Binding=(1−fucr)×100 % Unbound=100−% Bound Brain/Blood Partition Ratio (Kbb) Determination

Row | Compound | Kv3.1 pEC50 [1] | Kv3.1 max R % [1] | fraction unbound at 5 h, 5 micromolar [2] | pEC50 and maxR in the Kv3.1 assay (in words) [1]
1 | CC1(C)NC(=O)N(c2cnc(Oc3cccc4c3C(C)(C)CO4)cn2)C1=O [Example 2, 3-[5-[(3,3-dimethyl-2H-benzofuran-4-yl)oxy]pyrazin-2-yl]-5,5-dimethyl-imidazolidine-2,4-dione] | 4.68 | 149% | – | –
2 | CC[C@@]1(C)NC(=O)N(c2cnc(Oc3cccc4c3C3(CC3)CO4)cn2)C1=O [Example 3, (5R)-5-ethyl-5-methyl-3-(5-spiro[2H-benzofuran-3,1′-cyclopropane]-4-yloxypyrazin-2-yl)imidazolidine-2,4-dione] | 5.15 | 205% | – | –
3 | CC1(C)NC(=O)N(c2cnc(Oc3cccc4c3C3(CC3)CO4)cn2)C1=O [Example 4, 5,5-dimethyl-3-(5-spiro[2H-benzofuran-3,1′-cyclopropane]-4-yloxypyrazin-2-yl)imidazolidine-2,4-dione] | 5.17 | 170% | – | –
4 | CC[C@@]1(C)NC(=O)N(c2cnc(Oc3ccc(C)c4c3C3(CC3)CO4)cn2)C1=O [Example 5, (5R)-5-ethyl-5-methyl-3-[5-(7-methylspiro[2H-benzofuran-3,1′-cyclopropane]-4-yl)oxypyrazin-2-yl]imidazolidine-2,4-dione] | 5.69 | 149% | – | –
5 | CC[C@@]1(C)NC(=O)N(c2cnc(Oc3cccc4c3C(C)(C)CO4)cn2)C1=O [Example 6, (5R)-3-[5-[(3,3-dimethyl-2H-benzofuran-4-yl)oxy]pyrazin-2-yl]-5-ethyl-5-methyl-imidazolidine-2,4-dione] | 4.75 | 165% | – | –
6 | Cc1ccc(Oc2cnc(N3C(=O)NC(C)(C)C3=O)cn2)c2c1OCC2(C)C [Example 7, 5,5-dimethyl-3-[5-[(3,3,7-trimethyl-2H-benzofuran-4-yl)oxy]pyrazin-2-yl]imidazolidine-2,4-dione] | 5.12 | 134% | – | –
7 | CC[C@@]1(C)NC(=O)N(c2cnc(Oc3ccc(C)c4c3C(C)(C)CO4)cn2)C1=O [Example 8, (5R)-5-ethyl-5-methyl-3-[5-[(3,3,7-trimethyl-2H-benzofuran-4-yl)oxy]pyrazin-2-yl]imidazolidine-2,4-dione] | 5.29 | 119% | – | –
8 | CC[C@H]1NC(=O)N(c2cnc(Oc3cccc4c3C(C)(C)CO4)cn2)C1=O [Example 11, (5R)-3-[5-[(3,3-dimethyl-2H-benzofuran-4-yl)oxy]pyrazin-2-yl]-5-ethyl-imidazolidine-2,4-dione] | 4.89 | 165% | – | –
9 | CC[C@H]1NC(=O)N(c2cnc(Oc3ccc(C)c4c3C(C)(C)CO4)cn2)C1=O [Example 12, (5R)-5-ethyl-3-[5-[(3,3,7-trimethyl-2H-benzofuran-4-yl)oxy]pyrazin-2-yl]imidazolidine-2,4-dione] | 5.56 | 118% | – | –
10 | Cc1ccc(Oc2cnc(N3C(=O)NC4(CCC4)C3=O)cn2)c2c1OCC21CC1 [Example 13, 7-[5-(7-methylspiro[2H-benzofuran-3,1′-cyclopropane]-4-yl)oxypyrazin-2-yl]-5,7-diazaspiro[3.4]octane-6,8-dione] | 5.09 | 165% | – | –
11 | Cc1ccc(Oc2cnc(N3C(=O)NC4(CC4)C3=O)cn2)c2c1OCC21CC1 [Example 14, 6-[5-(7-methylspiro[2H-benzofuran-3,1′-cyclopropane]-4-yl)oxypyrazin-2-yl]-4,6-diazaspiro[2.4]heptane-5,7-dione] | 5.51 | 145% | – | –
12 | Cc1ccc(Oc2ncc(N3C(=O)NC(C)(C)C3=O)cn2)cc1OC(F)(F)F [RE1, reference compound] | 4.78 | 105% | – | –
13 | Cc1ccc(Oc2ccc(N3C(=O)NC(C)(C)C3=O)cn2)cc1OC(F)(F)F [RE2, reference compound] | 5.25 | 118% | – | –
14 | Cc1ccc(Oc2ccc(N3C(=O)NC(C)(C)C3=O)nc2)cc1OC(F)(F)F [RE3, reference compound] | 4.89 | 79% | – | –
15 | Cc1ccc(Oc2cnc(N3C(=O)NC(C)(C)C3=O)cn2)cc1OC(F)(F)F [RE4, reference compound] | <4.3 | 24% | – | –
16 | Cc1ccc(Oc2ccc(N3C(=O)NC(C)(C)C3=O)nc2)c2c1OCC21CC1 [RE7, reference compound] | 5.56 | 130% | 0.023 | –
17 | Cc1ccc(Oc2cnc(N3C(=O)NC(C)(C)C3=O)nc2)c2c1OCC21CC1 [RE8, reference compound] | 4.98 | 42% | – | –
18 | Cc1ccc(Oc2ccc(N3C(=O)NC(C)(C)C3=O)nn2)c2c1OCC21CC1 [RE9, reference compound] | <4.3 | 16% | – | –
19 | Cc1ccc(Oc2cncc(N3C(=O)NC(C)(C)C3=O)n2)c2c1OCC21CC1 [RE10, reference compound] | <4.3 | 22% | – | greatly reduced pEC50 and maxR
20 | CC[C@H]1NC(=O)N(c2ccc(Oc3ccc(C)c4c3C3(CC3)CO4)cn2)C1=O [RE12, reference compound] | 5.6 | 149% | 0.019 | –
21 | CC[C@H]1NC(=O)N(c2ccc(Oc3cccc4c3C3(CC3)CO4)cn2)C1=O [RE14, reference compound] | 5.2 | 150% | 0.058 | –
